# Experimental data as given in US20140039044A1, “Hydroxylated Polymethoxyflavone Compositions” (WLLGEN, INC., priority 2006, published 2014).
# Read-outs that look alike come from different tables or passages of the source.
# Tests used:
# Format in all cases: cell-based, human
# HL-60 cells [1] = assay: Cell survival assay (antiproliferative IC50); details: Homo sapiens, HL-60 cells, read-out: Antiproliferative IC50
# AGS cells = assay: Cell survival assay (antiproliferative IC50); details: Homo sapiens, AGS cells, read-out: Antiproliferative IC50
# COLO205 cells [2] = assay: Cell survival assay (antiproliferative IC50); details: Homo sapiens, COLO 205, COLO205 cells, read-out: Antiproliferative IC50
# COLO205 cells [3] = assay: Cell cycle distribution by flow cytometry; details: 24 h; for Cell Cycle Distribution G0/G1 / Cell Cycle Distribution G2/M / Cell Cycle Distribution S: COLO205 cells
# How it was run: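 Human cancer cells (2×10^5 per dish) exposed 24 h to compound at 5–100 μM, or DMSO. Cells ethanol-fixed at −20° C overnight, RNase/Triton-treated at 37° C for 30 min, then stained with propidium iodide. DNA content read by FACScan flow cytometry to give phase distribution.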
# HT-29 cells = assay: Apoptotic ratio by propidium iodide flow cytometry (AC50); details: Homo sapiens, read-out: Apoptosis-inducing AC50
# How it was run: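 HT-29 cells (2×10^5) were treated with compound for 24 h, then fixed in ice-cold ethanol overnight and treated with Triton X-100/RNase at 37 °C for 30 min. They were stained with propidium iodide (50 μg/mL solution) on ice for 30 min. The apoptotic fraction was measured from PI-DNA fluorescence by flow cytometry, and AC50 was reported.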
# HL-60 cells [4] = assay: Cell cycle distribution by flow cytometry; details: 24 h
# How it was run: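 HL-60 cells were treated for 24 h with compound at 5, 10, 25, 50 or 100 μM, or with DMSO. Cells were then ethanol-fixed, treated with Triton X-100/RNase and stained with propidium iodide. DNA content was measured by flow cytometry to give cell-cycle phase distribution.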
smiles,measurement,setting,value
"COc1ccc(-c2cc(=O)c3c(OC)c(OC)c(OC)c(OC)c3o2)cc1OC [Compound A, 5,6,7,8,3′,4′-hexamethoxyflavone, reference compound]",IC50,HL-60 cells [1]; Table 4,> 100 µg/mL
same,IC50,HL-60 cells [1],> 100 µM
same,IC50,AGS cells; Table 4,> 100 µg/mL
same,IC50,AGS cells,> 100 µM
same,IC50,COLO205 cells [2]; Table 4,66.7 ± 0.73 µg/mL
same,IC50,COLO205 cells [2],38 ± 1.4 µM
same,Cell Cycle Distribution G0/G1,"COLO205 cells [3]; 5 μM, Table 6",63.83 ± 0.29
same,Cell Cycle Distribution G2/M,"COLO205 cells [3]; 5 μM, Table 6",8.25 ± 0.69
same,Cell Cycle Distribution S,"COLO205 cells [3]; 5 μM, Table 6",27.93 ± 0.98
same,Cell Cycle Distribution G0/G1,"COLO205 cells [3]; 5 μM, Table 12",63.63 ± 0.53
same,Cell Cycle Distribution G2/M,"COLO205 cells [3]; 5 μM, Table 12",1.58 ± 0.04
same,Cell Cycle Distribution S,"COLO205 cells [3]; 5 μM, Table 12",34.80 ± 0.57
same,Cell Cycle Distribution G0/G1,"COLO205 cells [3]; 10 μM, Table 6",71.13 ± 0.65
same,Cell Cycle Distribution G2/M,"COLO205 cells [3]; 10 μM, Table 6",7.42 ± 0.48
same,Cell Cycle Distribution S,"COLO205 cells [3]; 10 μM, Table 6",21.45 ± 0.17
same,Cell Cycle Distribution G0/G1,"COLO205 cells [3]; 10 μM, Table 12",67.25 ± 0.38
same,Cell Cycle Distribution G2/M,"COLO205 cells [3]; 10 μM, Table 12",0.25 ± 0.25
same,Cell Cycle Distribution S,"COLO205 cells [3]; 10 μM, Table 12",32.50 ± 0.13
same,Cell Cycle Distribution G0/G1,"COLO205 cells [3]; 25 μM, Table 6",84.21 ± 4.38
same,Cell Cycle Distribution G2/M,"COLO205 cells [3]; 25 μM, Table 6",4.50 ± 0.35
same,Cell Cycle Distribution S,"COLO205 cells [3]; 25 μM, Table 6",14.29 ± 0.22
same,Cell Cycle Distribution G0/G1,"COLO205 cells [3]; 25 μM, Table 12",69.94 ± 1.02
same,Cell Cycle Distribution G2/M,"COLO205 cells [3]; 25 μM, Table 12",0.64 ± 0.07
same,Cell Cycle Distribution S,"COLO205 cells [3]; 25 μM, Table 12",27.42 ± 1.09
same,Cell Cycle Distribution G0/G1,"COLO205 cells [3]; 50 μM, Table 6",76.82 ± 1.48
same,Cell Cycle Distribution G2/M,"COLO205 cells [3]; 50 μM, Table 6",6.30 ± 0.08
same,Cell Cycle Distribution S,"COLO205 cells [3]; 50 μM, Table 6",16.89 ± 1.39
same,Cell Cycle Distribution G0/G1,"COLO205 cells [3]; 50 μM, Table 12",82.40 ± 0.63
same,Cell Cycle Distribution G2/M,"COLO205 cells [3]; 50 μM, Table 12",0.29 ± 0.08
same,Cell Cycle Distribution S,"COLO205 cells [3]; 50 μM, Table 12",17.50 ± 0.45
same,Cell Cycle Distribution G0/G1,"COLO205 cells [3]; 100 μM, Table 6",77.12 ± 2.00
same,Cell Cycle Distribution G2/M,"COLO205 cells [3]; 100 μM, Table 6",5.11 ± .46
same,Cell Cycle Distribution S,"COLO205 cells [3]; 100 μM, Table 6",17.74 ± 2.40
same,Cell Cycle Distribution G0/G1,"COLO205 cells [3]; 100 μM, Table 12",65.60 ± 0.65
same,Cell Cycle Distribution G2/M,"COLO205 cells [3]; 100 μM, Table 12",6.20 ± 1.25
same,Cell Cycle Distribution S,"COLO205 cells [3]; 100 μM, Table 12",28.21 ± 0.60
same,"Cell cycle arrest, in words","COLO205 cells [3]; COLO 205 cells, compound A 50 μM, compound I 100 μM",trends in G1 arrest
same,AC50,HT-29 cells,> 100 µM
same,Cell Cycle Distribution G0/G1,"HL-60 cells [4]; 5 μM, Table 5",45.81 ± 0.16
same,Cell Cycle Distribution G2/M,"HL-60 cells [4]; 5 μM, Table 5",0.02 ± 0.01
same,Cell Cycle Distribution S,"HL-60 cells [4]; 5 μM, Table 5",54.29 ± 0.01
same,Cell Cycle Distribution G0/G1,"HL-60 cells [4]; 5 μM, Table 10",41.42 ± 0.14
same,Cell Cycle Distribution G2/M,"HL-60 cells [4]; 5 μM, Table 10",8.15 ± 0.49
same,Cell Cycle Distribution S,"HL-60 cells [4]; 5 μM, Table 10",50.73 ± 0.42
same,Cell Cycle Distribution G0/G1,"HL-60 cells [4]; 10 μM, Table 5",53.84 ± 0.45
same,Cell Cycle Distribution G2/M,"HL-60 cells [4]; 10 μM, Table 5",5.73 ± 1.50
same,Cell Cycle Distribution S,"HL-60 cells [4]; 10 μM, Table 5",40.44 ± 1.06
same,Cell Cycle Distribution G0/G1,"HL-60 cells [4]; 10 μM, Table 10",50.36 ± 1.06
same,Cell Cycle Distribution G2/M,"HL-60 cells [4]; 10 μM, Table 10",2.75 ± 0.57
same,Cell Cycle Distribution S,"HL-60 cells [4]; 10 μM, Table 10",46.88 ± 0.28
same,Cell Cycle Distribution G0/G1,"HL-60 cells [4]; 25 μM, Table 5",61.96 ± 3.55
same,Cell Cycle Distribution G2/M,"HL-60 cells [4]; 25 μM, Table 5",5.93 ± 0.49
same,Cell Cycle Distribution S,"HL-60 cells [4]; 25 μM, Table 5",32.12 ± 4.04
same,Cell Cycle Distribution G0/G1,"HL-60 cells [4]; 25 μM, Table 10",66.18 ± 0.71
same,Cell Cycle Distribution G2/M,"HL-60 cells [4]; 25 μM, Table 10",2.77 ± 0.85
same,Cell Cycle Distribution S,"HL-60 cells [4]; 25 μM, Table 10",31.06 ± 0.99
same,Cell Cycle Distribution G0/G1,"HL-60 cells [4]; 50 μM, Table 5",62.37 ± 1.85
same,Cell Cycle Distribution G2/M,"HL-60 cells [4]; 50 μM, Table 5",6.44 ± 0.08
same,Cell Cycle Distribution S,"HL-60 cells [4]; 50 μM, Table 5",31.20 ± 1.76
same,Cell Cycle Distribution G0/G1,"HL-60 cells [4]; 50 μM, Table 10",64.40 ± 0.49
same,Cell Cycle Distribution G2/M,"HL-60 cells [4]; 50 μM, Table 10",7.67 ± 0.57
same,Cell Cycle Distribution S,"HL-60 cells [4]; 50 μM, Table 10",27.93 ± 0.35
same,Cell Cycle Distribution G0/G1,"HL-60 cells [4]; 100 μM, Table 5",65.00 ± 3.41
same,Cell Cycle Distribution G2/M,"HL-60 cells [4]; 100 μM, Table 5",4.18 ± 0.33
same,Cell Cycle Distribution S,"HL-60 cells [4]; 100 μM, Table 5",30.81 ± 3.08
same,Cell Cycle Distribution G0/G1,"HL-60 cells [4]; 100 μM, Table 10",62.05 ± 0.14
same,Cell Cycle Distribution G2/M,"HL-60 cells [4]; 100 μM, Table 10",7.35 ± 0.14
same,Cell Cycle Distribution S,"HL-60 cells [4]; 100 μM, Table 10",30.60 ± 0.35
same,"Cell cycle arrest, in words",HL-60 cells [4]; 25-100 μM,significant G1 arrest
